The values that follow come from patent publication US8329755B2, “Methods for treating retroviral infections” (Roche Palo Alto LLC, priority 2004, dated 2012).

Turning to `CCc1ccc(CC(=O)Nc2ccccc2Cl)cc1Oc1cc(C#N)cc(C#N)c1Cl` [Compound I-60, 2-[3-(2-Chloro-3,5-dicyano-phenoxy)-4-ethyl-phenyl]-N-(2-chloro-phenyl)-acetamide], the melting point (commonly the temperature of the solid-liquid transition) was 110 to 111.5 °C.
Consider `Cc1cc(CC(=O)Nc2ccc(S(N)(=O)=O)cc2)cc(C(=O)c2cc(Cl)cc(Cl)c2)c1` [Compound I-269, 2-[3-(3,5-Dichloro-benzoyl)-5-methyl-phenyl]-N-(4-sulfamoyl-phenyl)-acetamide], for which the melting point was in the range of 226 to 227.9 °C.
`CC(C)c1ccc(CC(=O)Nc2ccc(S(N)(=O)=O)cc2)cc1Oc1cc(Cl)ccc1Br` [Compound I-26, 2-[3-(2-Bromo-5-chloro-phenoxy)-4-isopropyl-phenyl]-N-(4-sulfamoyl-phenyl)-acetamide]: the melting point was 204.1 to 206.7 °C.
`CCc1ccc(CC(=O)Nc2ccc(S(N)(=O)=O)cc2Cl)cc1Oc1cc(Cl)cc(C#N)c1` [Compound I-47, 2-[3-(3-Chloro-5-cyano-phenoxy)-4-ethyl-phenyl]-N-(2-chloro-4-sulfamoyl-phenyl)-acetamide] displayed a melting point of 181.1 to 183.9 °C.
In turn, `N#Cc1cc(Oc2c(F)c(CC(=O)Nc3ccc(S(N)(=O)=O)cc3)cc(Br)c2Br)cc(C(F)F)c1` [Compound I-114, 2-[4,5-Dibromo-3-(3-cyano-5-difluoromethyl-phenoxy)-2-fluoro-phenyl]-N-(4-sulfamoyl-phenyl)-acetamide] registered a melting point of 144 to 147 °C.
`COc1cc(CC(=O)Nc2ccc(S(N)(=O)=O)cc2Cl)cc(Oc2cc(Cl)cc(C#N)c2)c1` [Compound I-136, 2-[3-(3-Chloro-5-cyano-phenoxy)-5-methoxy-phenyl]-N-(2-chloro-4-sulfamoyl-phenyl)-acetamide] registered a melting point of 159 to 161.1 °C.
The molecule `Cc1cc(S(=O)(=O)NC2CCOCC2)ccc1NC(=O)Cc1ccc(C)c(Oc2cc(Cl)cc(C#N)c2)c1` [Compound I-128, 2-[3-(3-Chloro-5-cyano-phenoxy)-4-methyl-phenyl]-N-[2-methyl-4-(tetrahydro-pyran-4-ylsulfamoyl)-phenyl]-acetamide] yielded a melting point of 171.7 to 172.6 °C.
For `Cc1cc(CC(=O)Nc2ccc(S(N)(=O)=O)cc2Cl)cc(Oc2cc(Cl)cc(C#N)c2)c1C` [Compound I-184, 2-[3-(3-Chloro-5-cyano-phenoxy)-4,5-dimethyl-phenyl]-N-(2-chloro-4-sulfamoyl-phenyl)-acetamide], the melting point is 224.3 to 225.7 °C.
The molecule `Cc1cc(S(N)(=O)=O)ccc1NC(=O)Cc1ccc(C)c(C(=O)c2cc(C#N)ccc2C)c1` [Compound I-265, 2-[3-(5-Cyano-2-methyl-benzoyl)-4-methyl-phenyl]-N-(2-methyl-4-sulfamoyl-phenyl)-acetamide] came in with a melting point of 224.3 to 228.1 °C.
`N#Cc1cc(Oc2c(Cl)ccc(CC(=O)Nc3ccc(S(N)(=O)=O)cc3)c2F)cc(C(F)F)c1` [Compound I-13, 2-[4-Chloro-3-(3-cyano-5-difluoromethyl-phenoxy)-2-fluoro-phenyl]-N-(4-sulfamoyl-phenyl)-acetamide] showed a melting point of 214 to 218 °C.
With `Cc1cc(OCC(=O)O)ccc1NC(=O)Cc1ccc(C)c(Oc2cc(Cl)cc(C#N)c2)c1` [Compound I-234, (4-{2-[3-(3-Chloro-5-cyano-phenoxy)-4-methyl-phenyl]-acetylamino}-3-methyl-phenoxy)-acetic acid], the melting point lay within 174.8 to 176.4 °C.
`COc1ccc(CC(=O)Nc2ccc(S(N)(=O)=O)cc2Cl)c(F)c1Oc1cc(Cl)cc(C#N)c1` [Compound I-190, 2-[3-(3-Chloro-5-cyano-phenoxy)-2-fluoro-4-methoxy-phenyl]-N-(2-chloro-4-sulfamoyl-phenyl)-acetamide] came in with a melting point of 212 to 212.8 °C.
Regarding `Cc1cc(S(=O)(=O)CCN)ccc1NC(=O)Cc1ccc(C)c(Oc2cc(Cl)cc(C#N)c2)c1` [Compound I-154, N-[4-(2-Amino-ethanesulfonyl)-2-methyl-phenyl]-2-[3-(3-chloro-5-cyano-phenoxy)-4-methyl-phenyl]-acetamide], the melting point lay within 92.4 to 95.5 °C.
`COc1cc(CC(=O)Nc2ccc(S(N)(=O)=O)cc2C)cc(Oc2cc(C#N)ccc2Cl)c1` [Compound I-103, 2-[3-(2-Chloro-5-cyano-phenoxy)-5-methoxy-phenyl]-N-(2-methyl-4-sulfamoyl-phenyl)-acetamide] registered a melting point of 179.8 to 184 °C.
Molecule `Cc1cc(S(N)(=O)=O)ccc1NC(=O)Cc1ccc(C)c(Oc2cc(Cl)cc(C#N)c2)c1F` [Compound I-74, 2-[3-(3-Chloro-5-cyano-phenoxy)-2-fluoro-4-methyl-phenyl]-N-(2-methyl-4-sulfamoyl-phenyl)-acetamide] gave a melting point of 230 to 232.2 °C.
On to `Cc1cc(CC(=O)Nc2ccc(S(N)(=O)=O)cc2Cl)cc(Oc2cc(Cl)cc(C#N)c2)c1` [Compound I-143, 2-[3-(3-Chloro-5-cyano-phenoxy)-5-methyl-phenyl]-N-(2-chloro-4-sulfamoyl-phenyl)-acetamide], for which the melting point lay in the range of 194.1 to 195.9 °C.
For the molecule `O=C(Cc1ccc(Cl)c(C(=O)c2cc(Cl)ccc2Cl)c1)Nc1ccccc1` [Compound I-251, 2-[4-Chloro-3-(2,5-dichloro-benzoyl)-phenyl]-N-phenyl-acetamide], the melting point lay in the range of 167.1 to 168.5 °C.
Consider `Cc1cc(S(=O)(=O)NCCN2CCOCC2)ccc1NC(=O)Cc1ccc(C)c(Oc2cc(Cl)cc(C#N)c2)c1` [Compound I-118, 2-[3-(3-Chloro-5-cyano-phenoxy)-4-methyl-phenyl]-N-[2-methyl-4-(2-morpholin-4-yl-ethylsulfamoyl)-phenyl]-acetamide], for which the melting point lay within 177 to 181 °C.
Turning to `CCc1ccc(CC(=O)Nc2ccc(S(=O)(=O)NC)cc2)cc1Oc1cc(Cl)cc(C#N)c1` [Compound I-48, 2-[3-(3-Chloro-5-cyano-phenoxy)-4-ethyl-phenyl]-N-(4-methylsulfamoyl-phenyl)-acetamide], the melting point lay within 149.1 to 151.3 °C.
`Cc1cc(S(N)(=O)=O)ccc1NC(=O)Cc1ccc(C)c(Oc2cc(C#N)cc(C(F)F)c2)c1F` [Compound I-85, 2-[3-(3-Cyano-5-difluoromethyl-phenoxy)-2-fluoro-4-methyl-phenyl]-N-(2-methyl-4-sulfamoyl-phenyl)-acetamide]: the melting point lay within 218 to 220.4 °C.
The same measure for `Cc1ccc(CC(=O)Nc2ccccc2Cl)cc1Oc1cc(F)cc(C#N)c1` [Compound I-12, N-(2-Chloro-phenyl)-2-[3-(3-cyano-5-fluoro-phenoxy)-4-methyl-phenyl]-acetamide]: 131.1 to 132.2 °C.
`CCCC(=O)N(C)S(=O)(=O)c1ccc(NC(=O)Cc2ccc(Cl)c(Oc3cc(Cl)cc(C#N)c3)c2F)c(Cl)c1` [Compound I-139, N-[4-(Butyryl-methyl-sulfamoyl)-2-chloro-phenyl]-2-[4-chloro-3-(3-chloro-5-cyano-phenoxy)-2-fluoro-phenyl]-acetamide] displayed a melting point of 186.9 to 187.6 °C.
The molecule `Cc1ccc(C#N)cc1C(=O)c1cc(CC(=O)Nc2ccccc2Cl)ccc1C` [Compound I-267, N-(2-Chloro-phenyl)-2-[3-(5-cyano-2-methyl-benzoyl)-4-methyl-phenyl]-acetamide] had a melting point of 129.4 to 131.6 °C.
`CN(C(=O)Cc1ccc(Cl)c(Oc2cc(Cl)cc(C#N)c2)c1F)c1ccccc1Cl` [Compound I-111, 2-[4-Chloro-3-(3-chloro-5-cyano-phenoxy)-2-fluoro-phenyl]-N-(2-chloro-phenyl)-N-methyl-acetamide] came in with a melting point of 134 to 137.1 °C.
In the case of `CCc1ccc(CC(=O)Nc2ccc(S(N)(=O)=O)cc2)cc1Oc1cc(Cl)ccc1Br` [Compound I-15, 2-[3-(2-Bromo-5-chloro-phenoxy)-4-ethyl-phenyl]-N-(4-sulfamoyl-phenyl)-acetamide], the melting point lay within 193.7 to 195.9 °C.
Molecule `NS(=O)(=O)c1ccc(NC(=O)Cc2ccc(Cl)c(Sc3cc(Cl)ccc3Br)c2)cc1` [Compound I-243, 2-[3-(2-Bromo-5-chloro-phenylsulfanyl)-4-chloro-phenyl]-N-(4-sulfamoyl-phenyl)-acetamide] displayed a melting point of 220 to 222.3 °C.
For `Cc1cc(S(N)(=O)=O)ccc1NC(=O)Cc1cc(C)c(C)c(Oc2cc(Cl)cc(C#N)c2)c1` [Compound I-183, 2-[3-(3-Chloro-5-cyano-phenoxy)-4,5-dimethyl-phenyl]-N-(2-methyl-4-sulfamoyl-phenyl)-acetamide], the melting point was in the range of 230.8 to 233.4 °C.
Turning to `NS(=O)(=O)c1ccc(NC(=O)Cc2ccc(Cl)c(Cc3cc(Cl)ccc3Cl)c2)c(Cl)c1` [Compound I-209, 2-[4-Chloro-3-(2,5-dichloro-benzyl)-phenyl]-N-(2-chloro-4-sulfamoyl-phenyl)-acetamide], the melting point fell in the range of 219.3 to 221.5 °C.
`N#Cc1cc(Cl)cc(Oc2c(Cl)ccc(CC(=O)Nc3ccc(S(=O)(=O)NC(=O)CCC(=O)O)cc3Cl)c2F)c1` [Compound I-188, 4-(3-Chloro-4-{2-[4-chloro-3-(3-chloro-5-cyano-phenoxy)-2-fluoro-phenyl]-acetylamino}-benzenesulfonylamino)-4-oxo-butyric acid] came in with a melting point of 143.4 to 144 °C.
`COc1ccc(CC(=O)Nc2ccc(S(N)(=O)=O)cc2C)cc1Oc1cc(Cl)cc(C#N)c1` [Compound I-73, 2-[3-(3-Chloro-5-cyano-phenoxy)-4-methoxy-phenyl]-N-(2-methyl-4-sulfamoyl-phenyl)-acetamide] registered a melting point of 222.3 to 224.3 °C.
For `Cc1cc(S(N)(=O)=O)ccc1NC(=O)Cc1ccc(Cl)c(Oc2cc(C#N)cc(C(F)(F)F)c2)c1F` [Compound I-120, 2-[4-Chloro-3-(3-cyano-5-trifluoromethyl-phenoxy)-2-fluoro-phenyl]-N-(2-methyl-4-sulfamoyl-phenyl)-acetamide] the value was 212 to 216.1 °C; for `N#Cc1cc(Oc2cc(CC(=O)Nc3ccc(S(N)(=O)=O)cc3Cl)ccc2Cl)cc(C(F)(F)F)c1` [Compound I-90, 2-[4-Chloro-3-(3-cyano-5-trifluoromethyl-phenoxy)-phenyl]-N-(2-chloro-4-sulfamoyl-phenyl)-acetamide], 198 to 202 °C; for `Cc1ccc(CC(=O)Nc2ccnn2C)cc1Oc1cc(Cl)cc(C#N)c1` [Compound I-227, 2-[3-(3-Chloro-5-cyano-phenoxy)-4-methyl-phenyl]-N-(2-methyl-2H-pyrazol-3-yl)-acetamide], 129.5 to 132.8 °C.
